Results from patent US20250263370A1 (Tay Therapeutics Limited, priority 2022, published 2025).
Values joined by “and” are separate entries in the source; they are usually repeats but may differ in a detail not shown here. Identical values can stand only once. “Also recorded” adds a separate entry of the source.

Tested on: collagen-induced arthritis
Test: Collagen-induced arthritis (CIA) model in rats: body weight, paw volume, clinical scores, clinical observations; for Average detailed clinical score, left hind limb: key of the grades not given here; for Average detailed clinical score, right hind limb: key of the grades not given here; for Detailed Clinical Scores, left forelimb: key of the grades not given here; for Detailed Clinical Scores, left hind limb: key of the grades not given here; for Detailed Clinical Scores, right forelimb: key of the grades not given here; for Detailed Clinical Scores, right hind limb: key of the grades not given here; for Detailed Clinical Scores, score: key of the grades not given here; for Mean overall clinical score ± SD: key of the grades not given here; for Overall clinical score: key of the grades not given here
Settings: for Mean animal paw volume ± SD: group mean; for Detailed Clinical Scores, left forelimb / Detailed Clinical Scores, left hind limb / Detailed Clinical Scores, right forelimb / Detailed Clinical Scores, right hind limb / Detailed Clinical Scores, score: individual animals ID 1-8; for Overall clinical score: individual animals #1-8
Procedure: Prior to be randomly placed in treatment groups, animals were weighed, and paw volume was measured. Once randomly assigned to treatment groups, on Day 0, animals in groups 2-9 were immunized by subcutaneous injection at the base of the tail.
The immunization comprised 100 μL of the CFA+Collagen emulsion (prepared according to the method in Experimental Method A). Animals in group one received no immunization. Seven days after the first injection, animals in groups 2-9 received a booster immunization comprising 200 μL of the IFA+Collagen emulsion (prepared according to the method in Experimental Method A).
Starting on Day 0, animals in group 1 and 2 were administered daily doses of the vehicle per os (P.O.) for 21 days. […] The twice daily doses for animals in groups 4-9 were 8 hours apart (e.g., the first dose at 8:00 AM and the second dose at 4:00 PM).
Body weight of all animals was recorded daily for the 21-day period. Blind clinical scores on all four limbs were conducted for all animals in the study. Animals were assessed prior to receiving their first dose of the compound or control, and scores for each limb were combined to a total daily score for each animal. Clinical score assessments were performed on Day 0, 6, 12, 13, 14, 15, 18, 19, and 21 (for a total of 9 daily scores).
Paw volume was recorded for each animal on Day 0, 6, 12, 13, 14, 15, 18, 19, and 21 (for a total of 9 measurements). To measure paw volume, animals were gently held with one hand while the hind paw was placed into a plethysmometer with the other hand. Lipid displacement by the paw was recorded and used to represent paw volume.
All data measured and recorded was analyzed using SPSS 16.0 software. Groups were compared using one-way ANOVA and significance was set at p<0.05.

## C[C@@H]1C[C@H]2[C@@H]3CCC4=CC(=O)C=C[C@]4(C)[C@@]3(F)[C@@H](O)C[C@]2(C)[C@@]1(O)C(=O)CO [dexamethasone]
CIA rats, Day 0, left hind paw (L)
  Average animal paw volume percent change: 0.00%
CIA rats, Day 0, left paw, individual animals
  Animal paw volume Day 0 L: 1.35 mL and 1.31 mL and 1.39 mL and 1.33 mL and 1.30 mL (2×) and 1.34 mL and 1.36 mL
CIA rats, Day 0, right hind paw (R)
  Average animal paw volume percent change: 0.00%
CIA rats, Day 0, right paw, individual animals
  Animal paw volume Day 0 R: 1.34 mL and 1.30 mL (2×) and 1.38 mL and 1.35 mL and 1.29 mL and 1.36 mL and 1.37 mL
CIA rats, Day 6, left hind paw (L)
  Average animal paw volume percent change: −3.37%
CIA rats, Day 6, left paw, individual animals
  Animal paw volume Day 6 L: 1.31 mL and 1.29 mL (3×) and 1.34 mL and 1.26 mL (2×) and 1.28 mL
CIA rats, Day 6, right hind paw (R)
  Average animal paw volume percent change: −3.26%
CIA rats, Day 6, right paw, individual animals
  Animal paw volume Day 6 R: 1.30 mL (3×) and 1.28 mL (2×) and 1.34 mL and 1.27 mL and 1.26 mL
CIA rats, Day 12, left hind paw (L)
  Average animal paw volume percent change: −4.94%
CIA rats, Day 12, left paw, individual animals
  Animal paw volume Day 12 L: 1.21 mL (2×) and 1.37 mL and 1.28 mL (2×) and 1.22 mL and 1.30 mL and 1.29 mL
CIA rats, Day 12, right hind paw (R)
  Average animal paw volume percent change: −5.21%
CIA rats, Day 12, right paw, individual animals
  Animal paw volume Day 12 R: 1.25 mL (2×) and 1.26 mL (2×) and 1.37 mL and 1.27 mL and 1.18 mL and 1.29 mL
CIA rats, Day 13, left hind paw (L)
  Average animal paw volume percent change: −3.57%
CIA rats, Day 13, left paw, individual animals
  Animal paw volume Day 13 L: 1.23 mL and 1.24 mL and 1.40 mL and 1.29 mL (2×) and 1.30 mL and 1.25 mL and 1.31 mL
CIA rats, Day 13, right hind paw (R)
  Average animal paw volume percent change: −4.08%
CIA rats, Day 13, right paw, individual animals
  Animal paw volume Day 13 R: 1.26 mL and 1.27 mL and 1.38 mL and 1.25 mL and 1.28 mL and 1.21 mL and 1.31 mL and 1.29 mL
CIA rats, Day 14, left hind paw (L)
  Average animal paw volume percent change: −4.60%
CIA rats, Day 14, left paw, individual animals
  Animal paw volume Day 14 L: 1.24 mL (3×) and 1.39 mL and 1.27 mL and 1.28 mL and 1.29 mL and 1.25 mL
CIA rats, Day 14, right hind paw (R)
  Average animal paw volume percent change: −5.07%
CIA rats, Day 14, right paw, individual animals
  Animal paw volume Day 14 R: 1.26 mL (4×) and 1.38 mL and 1.23 mL and 1.20 mL and 1.29 mL
CIA rats, Day 15, left hind paw (L)
  Average animal paw volume percent change: −5.47%
CIA rats, Day 15, left paw, individual animals
  Animal paw volume Day 15 L: 1.23 mL and 1.21 mL and 1.36 mL and 1.28 mL and 1.26 mL and 1.16 mL and 1.33 mL and 1.27 mL
CIA rats, Day 15, right hind paw (R)
  Average animal paw volume percent change: −5.41%
CIA rats, Day 15, right paw, individual animals
  Animal paw volume Day 15 R: 1.25 mL and 1.24 mL and 1.36 mL and 1.27 mL (2×) and 1.14 mL and 1.32 mL and 1.26 mL
CIA rats, Day 18, left hind paw (L)
  Average animal paw volume percent change: −3.01%
CIA rats, Day 18, left paw, individual animals
  Animal paw volume Day 18 L: 1.28 mL and 1.22 mL and 1.45 mL and 1.31 mL and 1.29 mL and 1.18 mL and 1.34 mL and 1.30 mL
CIA rats, Day 18, right hind paw (R)
  Average animal paw volume percent change: −3.14%
CIA rats, Day 18, right paw, individual animals
  Animal paw volume Day 18 R: 1.28 mL and 1.44 mL and 1.31 mL and 1.29 mL (2×) and 1.34 mL
CIA rats, Day 19, left hind paw (L)
  Average animal paw volume percent change: −3.33%
CIA rats, Day 19, left paw, individual animals
  Animal paw volume Day 19 L: 1.28 mL (2×) and 1.22 mL and 1.44 mL and 1.30 mL (2×) and 1.19 mL and 1.33 mL
CIA rats, Day 19, right hind paw (R)
  Average animal paw volume percent change: −3.57%
CIA rats, Day 19, right paw, individual animals
  Animal paw volume Day 19 R: 1.27 mL (2×) and 1.22 mL and 1.44 mL and 1.31 mL and 1.18 mL and 1.32 mL and 1.30 mL
CIA rats, Day 21, left hind paw (L)
  Average animal paw volume percent change: −3.56%
CIA rats, Day 21, left paw, individual animals
  Animal paw volume Day 21 L: 1.26 mL and 1.22 mL and 1.43 mL and 1.31 mL (2×) and 1.30 mL (2×) and 1.18 mL
CIA rats, Day 21, right hind paw (R)
  Average animal paw volume percent change: −3.51%
CIA rats, Day 21, right paw, individual animals
  Animal paw volume Day 21 R: 1.26 mL and 1.22 mL and 1.43 mL and 1.31 mL and 1.30 mL (2×) and 1.18 mL and 1.32 mL
CIA rats, daily P.O. for 21 days
  signs of disease over the 21-day period: No animals in group 3 (dexamethasone) ever received a score indicating that they exhibited symptoms of disease; also recorded: never exhibited any signs of disease
CIA rats, daily P.O. for 21 days, listed as Dexamethasone
  effect on hind paw volume: effective at controlling paw volume; also recorded: effective at preventing any change in paw volume throughout the entire 21-day period
CIA rats, daily P.O., day 12
  animals showing signs of disease: No animals
Day 0, L paw
  Mean animal paw volume ± SD: 1.33 mL
Day 0, L paw, individual animals
  Animal paw volume percent change: 0.00%
Day 0, R paw
  Mean animal paw volume ± SD: 1.33 mL
Day 0, R paw, individual animals
  Animal paw volume percent change: 0.00%
Day 0, CIA rats
  Average detailed clinical score, left forelimb: 0.00
  Average detailed clinical score, left hind limb: 0.00
  Average detailed clinical score, right forelimb: 0.00
  Average detailed clinical score, right hind limb: 0.00
  Average detailed clinical score, score: 0.00
  Mean overall clinical score ± SD: 0 ± 0
  Detailed Clinical Scores, left forelimb: 0
  Detailed Clinical Scores, left hind limb: 0
  Detailed Clinical Scores, right forelimb: 0
  Detailed Clinical Scores, right hind limb: 0
  Detailed Clinical Scores, score: 0
  Overall clinical score: 0
Day 6, L paw
  Mean animal paw volume ± SD: 1.29 mL
Day 6, L paw, individual animals
  Animal paw volume percent change: −2.97% and −1.53% and −3.61% and −3.02% and −3.09% and −3.08% and −4.12% and −5.51%
Day 6, R paw
  Mean animal paw volume ± SD: 1.29 mL
Day 6, R paw, individual animals
  Animal paw volume percent change: −3.00% and −1.16% and −2.91% and −3.72% and −1.56% and −2.70% and −5.90% and −5.13%
Day 6, CIA rats
  Average detailed clinical score, left forelimb: 0.00
  Average detailed clinical score, left hind limb: 0.00
  Average detailed clinical score, right forelimb: 0.00
  Average detailed clinical score, right hind limb: 0.00
  Average detailed clinical score, score: 0.00
  Mean overall clinical score ± SD: 0 ± 0
  Detailed Clinical Scores, left forelimb: 0
  Detailed Clinical Scores, left hind limb: 0
  Detailed Clinical Scores, right forelimb: 0
  Detailed Clinical Scores, right hind limb: 0
  Detailed Clinical Scores, score: 0
  Overall clinical score: 0
Day 12, L paw
  Mean animal paw volume ± SD: 1.27 mL
Day 12, L paw, individual animals
  Animal paw volume percent change: −10.41% and −7.66% and −1.44% and −3.40% and −1.54% and −6.54% and −3.00% and −5.51%
Day 12, R paw
  Mean animal paw volume ± SD: 1.26 mL
Day 12, R paw, individual animals
  Animal paw volume percent change: −6.74% and −3.09% and −0.73% and −7.43% and −1.56% and −9.27% and −7.01% and −5.86%
Day 12, CIA rats
  Average detailed clinical score, left forelimb: 0.00
  Average detailed clinical score, left hind limb: 0.00
  Average detailed clinical score, right forelimb: 0.00
  Average detailed clinical score, right hind limb: 0.00
  Average detailed clinical score, score: 0.00
  Mean overall clinical score ± SD: 0 ± 0
  Detailed Clinical Scores, left forelimb: 0
  Detailed Clinical Scores, left hind limb: 0
  Detailed Clinical Scores, right forelimb: 0
  Detailed Clinical Scores, right hind limb: 0
  Detailed Clinical Scores, score: 0
  Overall clinical score: 0
Day 13, L paw
  Mean animal paw volume ± SD: 1.28 mL
Day 13, L paw, individual animals
  Animal paw volume percent change: −8.92% and −5.36% and 0.72% and −3.02% and 0.00% and −4.23% and −2.25% and −5.51%
Day 13, R paw
  Mean animal paw volume ± SD: 1.28 mL
Day 13, R paw, individual animals
  Animal paw volume percent change: −5.99% and −2.32% and 0.36% and −7.43% and −0.78% and −6.95% and −3.69% and −5.86%
